The target of experiment [1] is AgrA (Staphylococcus aureus, UniProt P0A0I7). Put plainly: cell-based. More on the design: species or system S. aureus USA300 strain UAMS-1625. As to conditions: for Ratio IC50 (in presence of HSA)/IC50 (in absence of HSA): 40 mg/mL HSA vs without HSA.
Experiment [2] relates to S. aureus. As to conditions: after multiple passages with Savirin; cited from earlier work.
Experiment [3] concerns MRSA USA300 type strain. As to conditions: mice, applied multiple times; cited from earlier work.
The subject of experiment [4] is red blood cell (RBC). As to conditions: cited from earlier work.
The mark [5] stands for this setting: IC50 at 40 mg/mL HSA, LB medium supplemented with 40 mg/mL human serum albumin.
Setting [6] is: IC50 without HSA, LB medium, without HSA.

Sequence of AgrA (P0A0I7 whole entry): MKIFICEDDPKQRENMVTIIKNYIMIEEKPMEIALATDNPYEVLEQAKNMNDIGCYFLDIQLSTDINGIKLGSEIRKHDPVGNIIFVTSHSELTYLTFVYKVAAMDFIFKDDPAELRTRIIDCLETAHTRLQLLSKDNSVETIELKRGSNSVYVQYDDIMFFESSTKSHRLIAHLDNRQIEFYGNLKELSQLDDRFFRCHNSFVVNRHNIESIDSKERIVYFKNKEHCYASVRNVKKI

For the molecule `CCN(CC)CCC(=O)N1CCN(c2ccc3c(=O)[nH]c4c(S(=O)(=O)c5ccc(C)cc5C)nnn4c3c2)CC1` [Compound 58, 8-{4-[3-(diethylamino)propanoyl]piperazin-1-yl}-3-(2,4-dimethylbenzenesulfonyl)-4H,5H-[1,2,3]triazolo[1,5-a]quinazolin-5-one], the figures for the IC50 in experiment [1] (setting [5]) and in experiment [1] (setting [6]) were 17.7 to 88.4 µM and 1.77 to 8.84 µM, respectively.
As for `Cc1ccc(S(=O)(=O)c2n[nH]n3c2nc(=O)c2ccc(N4CCN(C5CCN(C)CC5)CC4)cc23)c(C)c1` [Compound 59, 3-(2,4-dimethylbenzenesulfonyl)-8-[4-(1-methylpiperidin-4-yl)piperazin-1-yl]-1H,5H-[1,2,3]triazolo[1,5-a]quinazolin-5-one], the “Ratio IC50 (in presence of HSA)/IC50 (in absence of HSA)” value (“Ratio IC50 (in presence of HSA)/IC50” below) in experiment [1] is “+++ (ratio ≤ 25)”. Also, the IC50 was in the range of 18.7 to 93.3 µM in experiment [1] (setting [5]) and 1.87 to 9.33 µM in experiment [1] (setting [6]).
For `Cc1ccc(S(=O)(=O)c2nnn3c2[nH]c(=O)c2ccc(N4CCN(C5CC5)CC4)cc23)c(C)c1` [Compound 60, 8-(4-cyclopropylpiperazin-1-yl)-3-(2,4-dimethylbenzenesulfonyl)-4H,5H-[1,2,3]triazolo[1,5-a]quinazolin-5-one], in that order: “++ (ratio ≤ 125)”, 20.9 to 104 µM and less than 2.09 µM.
Turning to `Cc1ccc(S(=O)(=O)c2nnn3c2[nH]c(=O)c2ccc(N4CC5(CC(C(=O)O)C5)C4)cc23)c(C)c1` [Compound 63, 2-[3-(2,4-Dimethyl-benzenesulfonyl)-5-oxo-4,5-dihydro-[1,2,3]triazolo[1,5-a]quinazolin-8-yl]-2-aza-spiro[3.3]heptane-6-carboxylic acid], in experiment [1], the “Ratio IC50 (in presence of HSA)/IC50” value is reported as “+++ (ratio ≤ 25)”. The IC50 in experiment [1] (setting [5]) is less than 20.3 µM; in experiment [1] (setting [6]), less than 2.03 µM.
With `Cc1ccc(S(=O)(=O)c2nnn3c2[nH]c(=O)c2ccc(N4CCC(C(=O)O)CC4)cc23)c(C)c1` [Compound 64, 1-[3-(2,4-Dimethyl-benzenesulfonyl)-5-oxo-4,5-dihydro-[1,2,3]triazolo[1,5-a]quinazolin-8-yl]-piperidine-4-carboxylic acid], the “Ratio IC50 (in presence of HSA)/IC50” value in experiment [1] is reported as “+++ (ratio ≤ 25)”. Moreover, the 50% inhibitory concentration (IC50) in experiment [1] (setting [5]) was less than 20.8 µM; in experiment [1] (setting [6]), less than 2.08 µM.
On to `CC(C)c1ccc(S(=O)(=O)c2nnn3c2nc(O)c2ccccc23)cc1` [Savirin], for which, in experiment [2], the resistance development entry was “No resistance was developed”. In addition, the “abscess size and dermonecrosis” value in experiment [3] was “significant reduction”. For the same molecule, in experiment [4], the “exotoxin-induced red blood cell (RBC) lysis” value is given as “inhibited”.

Source of the values: patent US20250213575A1, “8-HETEROCYCLIC-3-(PHENYLSULFONYL)-[1,2,3]TRIAZOLO[1,5A]QUINAZOLIN-5(4H)-ONE DERIVATIVES AS ANTI-BACTERIALS” (priority 2022, published 2025).
